Values quoted from earlier work as cited in US20110142766A1, “Effervescent Multi-Vitamin Formulation and Methods of Use Thereof” (priority 2009, published 2011).

Legend:
vision loss = settings: group treated with zinc compared with a group treated with a placebo
[1] = tested on: age-related macular degeneration

Which “reduction in vision loss” value (vision loss) does the source give for `[Zn]` [zinc] here?
Its value is “statistically significant reduction in vision loss”.

What about the “reduction of risk of (central) vision loss” value ([1]; people at high risk for developing advanced AMD) of the same compound?
Its value is “about 11%”.

What about the “reduction of risk of developing advanced stages of AMD” value ([1]; people at high risk for developing advanced AMD (intermediate AMD, or advanced AMD in one eye only)) of the same compound?
The value was “about 21%”.
